{"source": "patent US8420606B2", "about": "“Method of utilizing physiological activity of rare saccharide and composition containing rare saccharide” (priority 2002, dated 2013)", "key": {"human albumin": {"molecular_target": "human albumin (Homo sapiens, UniProt P02768)", "sequence (P02768 25-609)": "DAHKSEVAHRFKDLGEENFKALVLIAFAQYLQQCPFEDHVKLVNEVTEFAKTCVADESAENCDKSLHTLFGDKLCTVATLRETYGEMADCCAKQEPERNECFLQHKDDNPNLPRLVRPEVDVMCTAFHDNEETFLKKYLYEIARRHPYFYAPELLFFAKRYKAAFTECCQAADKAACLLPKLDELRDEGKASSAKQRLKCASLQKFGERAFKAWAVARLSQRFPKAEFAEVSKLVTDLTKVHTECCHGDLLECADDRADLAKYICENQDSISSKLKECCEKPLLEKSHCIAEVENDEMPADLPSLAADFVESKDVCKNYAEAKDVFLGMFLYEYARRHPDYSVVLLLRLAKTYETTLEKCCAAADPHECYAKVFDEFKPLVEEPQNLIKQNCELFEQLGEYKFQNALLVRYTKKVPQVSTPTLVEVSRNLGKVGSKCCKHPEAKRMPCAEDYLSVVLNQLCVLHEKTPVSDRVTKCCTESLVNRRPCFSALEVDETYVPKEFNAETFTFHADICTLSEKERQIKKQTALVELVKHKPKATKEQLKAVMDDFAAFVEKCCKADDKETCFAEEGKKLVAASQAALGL", "test": "saccharification (glycation) of albumin, glycoalbumin reagent", "assay_type": "biochemical", "details": "albumin 3 g/dl", "description": "(2) Method: After fragmenting albumin into amino acids by using protease K, i.e., glycoalbumin (GA) measurement reagent (made by Oriental Yeast Co., Ltd.), glycolysine was measured by using ketoamine oxydase (see FIG. 38). Glycation of human albumin with various rare saccharides was examined. A sample was prepared through the steps of dissolving 3 g/dl of pure human albumin in PBS and then dissolving each of the rare saccharides so as to prepare a solution in final concentration of 55.5 mM. The prepared solution was filtrated with a filter of 0.25 μm mesh and sterilized, followed by incubation at 37° C. for 7 days. During the incubation, the GA concentration (glycolysine concentration) was measured at intervals of exactly 24 hours. Further, similar experiments were conducted by adding each of the rare saccharides in an albumin solution (final concentration 3 g/dl) and a glucose solution (final concentration 55.5 mM) so that each of the rare saccharides had final concentration of 55.5 mM."}, "[1]": {"test_system": "skin keratinocyte (HaCaT)", "test": "proliferation of cultured cells, MTT method, HaCaT", "assay_type": "cell-based, human", "details": "saccharide 50 mM, 4 to 5 days", "description": "(§1) Various kinds of rare saccharides were added at a concentration of 50 mM to culture media under the following conditions, and an influence of each rare saccharide upon the progress of proliferation of cancer cell strains was examined.\n(§2) (1) Target cells to which the rare saccharides were added: Hepatic cancer cells (HepG2), uterine cancer cells (He1a), ovary cancer cells (OVCAR3), and skin keratinocyte (HaCaT) were selected as target cells to which the rare saccharides were added.\n(§3) (2) Rare saccharides added: In addition to D-allose, glucose and D-altros as rare saccharides belonging to ketose were added, as other comparative saccharides, to the addition target cells. Also, D-fructose was employed as a control.\n(3) Experiment method: A number 3,000-5,000 of addition target cells per type were inoculated into a multi-well plastic dish (hereinafter referred to as a “well”) having 96 wells, and were cultured for 4 to 5 days in a culture medium supplemented with 5 to 10% of Fetal Bovine Serum (FBS) depending on the cell types. […] To examine the influence upon the cell proliferation, the cell number was measured in units of 24 hours by using the MTT method described below. […]\n(2) Test method: The cells were treated with TEP to prepare a cell suspension liquid. […] The absorbance of the liquid was measured at a wavelength of 570 to 600 nm by using a spectrophotometer. […]"}, "HL-60": {"test_system": "HL-60", "test": "blood-system cancer cell strain proliferation, Coulter Counter, HL60", "assay_type": "cell-based", "details": "0.05-50 mM, 7 days, D-glucose control", "description": "(§4) (2) Method: Total 6 kinds of cell strains, i.e., Myeloid (HL-60, THP-1, KG-1), T-cell (MT-2), and B-Cell (Daudi, KS-1), and 3 kinds of rare saccharides (i.e., D-psicose, D-altrose, and D-allose), were employed. The culture medium and the cells were prepared to be 1 mL in total and 1×10^5 in number, respectively. Then, the cell number at each of fourth day and seventh day was counted by using a Coulter Counter. Each rare saccharide was added at concentrations of 0.05, 0.5, 5 and 50 mM, while D-glucose was used as a control.\n(§5) Culture Medium: FBS 10% added RPMI1460\n(§6) Cultivation Conditions: 37° C., 5% CO2\n(§7) Cultivation Vessel: FALCON, MULTIWELL, 12 wells\n(§8) Number of Cultivation Days: 7 days\n(§9) Saccharides Concentration: 0.05, 0.5, 5, 50 mM"}, "[2]": {"test_system": "Hepatic cancer cells (HepG2)", "test": "proliferation of cultured cells, MTT method, HepG2", "assay_type": "cell-based, human", "details": "saccharide 50 mM, 4 to 5 days", "description": "as §1, §2, §3\n(§10) (3) Experiment method: A number 3,000-5,000 of addition target cells per type were inoculated into a multi-well plastic dish (hereinafter referred to as a “well”) having 96 wells, and were cultured for 4 to 5 days in a culture medium supplemented with 5 to 10% of Fetal Bovine Serum (FBS) depending on the cell types. D-Allose, D-glucose and D-altros were each added at concentration of 50 mM to the addition target cells per type. Similarly, D-fructose as a control was added at a concentration of 50 mM. To examine the influence upon the cell proliferation, the cell number was measured in units of 24 hours by using the MTT method described below.\n(1) Preparation of reagents: A predetermined amount of MTT (tetrazolium salt) was dissolved in PBS(−) sterilized in an autoclave to obtain an MTT solution through filtering and sterilization. An acidic solution was prepared by adding 50 mL of N,N-dimethylformaldehyde and water to a predetermined amount of (20 g) of SDS, thereby obtaining a 100 mL of solution. […]\n(2) Test method: The cells were treated with TEP to prepare a cell suspension liquid. […] The absorbance of the liquid was measured at a wavelength of 570 to 600 nm by using a spectrophotometer. After dissolving the colored substance (formazan) in the acid solution, the absorbance can be measured directly by a plate reader."}, "Daudi": {"test_system": "Daudi", "test": "blood-system cancer cell strain proliferation, Coulter Counter, Daudi", "assay_type": "cell-based", "details": "0.05-50 mM, 7 days, D-glucose control", "description": "as §4, §5, §6, §7, §8, §9"}, "[3]": {"test_system": "ovary cancer cells (OVCAR3)", "test": "proliferation of cultured cells, MTT method, OVCAR3", "assay_type": "cell-based", "details": "saccharide 50 mM, 4 to 5 days, MTT", "description": "as §1, §2, §3, §10\n(1) Preparation of reagents: A predetermined amount of MTT (tetrazolium salt) was dissolved in PBS(−) sterilized in an autoclave to obtain an MTT solution through filtering and sterilization. An acidic solution was prepared by adding 50 mL of N,N-dimethylformaldehyde and water to a predetermined amount of (20 g) of SDS, thereby obtaining a 100 mL of solution. About […] of 1N hydrochloric acid was added to the solution for adjustment of a pH-value to 4.7. The solution was preserved at room temperature and warmed up to 37° C. just before the use.\n(2) Test method: The cells were treated with TEP to prepare a cell suspension liquid. This cell suspension liquid was pipetted in a predetermined cell-density (300 to 52000 cells/well) to each well (96-well plate: 0.1 mL of culture medium per well). The saccharide as a drug was added in a predetermined amount to each well, followed by cultivation for a whole day and night in a CO2 incubator. Then, 0.5 mg/mL of the MTT solution was added and the resulting culture was incubated for 4 hours in the incubator. Thereafter, the culture medium was completely removed. Then, in a room kept at 37° C., an acid solution was added in amount of 0.1 mL/well. The well plate was placed on a micro-plate mixer and shaken at 37° C. for 20 minutes to dissolve a colored substance (namely, to dissolve “formazan” in the acid solution). The absorbance of the liquid was measured at a wavelength of 570 to 600 nm by using a spectrophotometer. After dissolving the colored substance (formazan) in the acid solution, the absorbance can be measured directly by a plate reader.\n(1) Experiment method: The ovary cancer cells (OVCAR3) were selected as target cells to which a rare saccharide was added, and D-allose as the saccharide was added at concentrations of 1 mM, 5 mM, 10 mM, 20 mM, 50 mM and 100 mM. The experimental conditions, such as the method of culturing the ovary cancer cells (OVCAR3) and the method of measuring the cell number (MTT method), were the same as those in Example 1."}, "[4]": {"test_system": "Rat leukocyte (granulocyte)", "test": "production of active oxygen from leukocyte, LO12 chemiluminescence, zymosan", "assay_type": "cell-based", "details": "saccharide 10 mM added to the producing system, zymosan", "description": "Influences of various kinds of rare saccharides upon production of active oxygen from leukocyte were examined under the conditions given below. In this Example 5, an effect against the production of active oxygen from leukocyte was examined with LO12 chemiluminescence.\n(1) Target leukocyte to which the rare saccharides were added: Rat leukocyte (granulocyte) was used.\n(2) Rare saccharides added: In addition to D-allose as a rare saccharide belonging to aldose, D-psicose and D-altros as rare saccharides belonging to ketose and D-tallitol belong to polyol were added as other comparative saccharides. Further, D-glucose and D-fructose were employed as saccharides abundant in the natural world.\n(3) Experiment method: (1) Changes over time in production of active oxygen from rat leukocyte . . . The time-dependent progress in production of active oxygen caused by adding zymosan particles to rat leukocyte (granulocyte) was examined. Also, the time-dependent progress in production of active oxygen caused under the presence of each of the rare saccharides was examined.\n(2) Influences of rare saccharides upon production of active oxygen . . . By adding the various saccharides to the system for producing active oxygen from leukocyte, the amount of produced active oxygen was measured for each saccharide. The concentration of each of the added rare saccharides was set to 10 mM. Also, the measurement was made under the condition without addition of any saccharides.\n(3) Effect of rare saccharides upon production of active oxygen . . . The rare saccharides were each added at concentration of 10 mM after the start of phagocytosis and the start of the production of active oxygen subsequent to addition of zymosan to leukocyte.\n(4) Concentration dependency of active-oxygen production inhibitory effect of D-allose . . . Concentration dependency of the active-oxygen production inhibitory effect of D-allose was examined. D-allose was added at concentration of 0 mM, 5 mM and 10 mM."}, "[5]": {"test_system": "glutamate release from hippocampus", "test": "temporary brain ischemia, glutamate outside hippocampus neurons by micro-dialysis", "assay_type": "in vivo, gerbil", "details": "pre-administration; compared with effect of D-allose", "description": "(2) Method: The bilateral common carotid artery of a gerbil was shut off for 5 minutes. After 1 week, the gerbil was sacrificed and a sample was prepared in accordance with the ordinary method, followed by hematoxyline eosin dyeing. The survival rate was measured by counting the number of hippocampus neurons while looking at them under a microscope. Experiments were performed on a normal control group, a group subjected to only ischemia, and a group administrated with 200 mg/kg of D-allose or D-psicose before ischemia. It is known that glutamates released in large amount from the neurons with ischemia are toxic to the neurons. Such a point was examined by fixing the gerbil to a brain position fixing device, perfusing a solution, in which oxidase glutamate is dissolved, to the hippocampus through a probe for micro-dialysis, and measuring the glutamate concentration outside the hippocampus neurons. Also, the inventors have clarified the relationship between the metabolism of glucose and the action mechanism of D-allose with ischemia by pre-administrating D-allose and 2-deoxiglucose."}, "[6]": {"details": "saccharide 55.5 mM, 37° C., 7 days"}}}
{"smiles": "O=C(CO)[C@@H](O)[C@H](O)[C@H](O)CO", "note": "[D-fructose, reference compound]", "values": [{"measurement": "glycation (saccharification) of albumin", "setting": "human albumin; [6]", "value": "do not cause the saccharification"}]}
{"smiles": "O=C[C@@H](O)[C@@H](O)[C@H](O)[C@H](O)CO", "note": "[D-mannose, reference compound]", "values": [{"measurement": "saccharification rate of albumin under coexistence with glucose", "setting": "human albumin; saccharide 55.5 mM + D-glucose 55.5 mM", "value": "about 100 μmol/day"}, {"measurement": "saccharification rate of albumin", "setting": "human albumin; [6]", "value": "about 50 μmol/day"}]}
{"smiles": "O=C[C@@H](O)[C@H](O)[C@H](O)[C@H](O)CO", "note": "[D-altrose, reference compound]", "values": [{"measurement": "proliferation of HaCaT cells (cell number over time)", "setting": "[1]", "value": "inhibitory effect at a medium level"}, {"measurement": "HL60 proliferation inhibitory effect", "setting": "HL-60", "value": "showed no effect"}, {"measurement": "proliferation of HepG2 cells (cell number over time)", "setting": "[2]", "value": "weaker than that of D-allose"}, {"measurement": "Daudi-cell proliferation inhibitory effect", "setting": "Daudi", "value": "showed no effect"}, {"measurement": "proliferation of OVCAR3 cells (cell number over time)", "setting": "[3]", "value": "weaker than that of D-allose"}, {"measurement": "production of active oxygen from leukocyte", "setting": "[4]", "value": "No inhibitory effect"}]}
{"smiles": "O=CC[C@@H](O)[C@H](O)[C@H](O)CO", "note": "[2-deoxyglucose, reference compound]", "values": [{"measurement": "glutamate release inhibitory effect", "setting": "[5]", "value": "similarly observed"}]}
{"smiles": "OC[C@@H](O)[C@H](O)[C@H](O)[C@H](O)CO", "note": "[D-tallitol, reference compound]", "values": [{"measurement": "production of active oxygen from leukocyte", "setting": "[4]", "value": "No inhibitory effect"}]}
